Source: the supplement of paper PMC10307832

Legend:
Assay in all cases: relative viability (nuclei count vs DMSO), 5 days (fraction); higher = more cells survive
[1] = compound: CCCS(=O)(=O)Nc1ccc(F)c(C(=O)c2c[nH]c3ncc(-c4ccc(Cl)cc4)cc23)c1F [Vemurafenib] + CC(=O)Nc1cccc(-n2c(=O)n(C3CC3)c(=O)c3c(Nc4ccc(I)cc4F)n(C)c(=O)c(C)c32)c1 [Trametinib] (partner 0.02 µM)
Procedure, shortened: (§1)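 The day after seeding in 1536-well plates, lung cancer cell lines were treated by pin tool with a single drug, or with a fixed anchor-drug dose together with five library-drug doses (not always all listed) in √10 steps. After 5 days, a combined fix-and-stain solution (final 0.05% Triton X-100, 1% formaldehyde, 1 ug/ml Hoechst) was added. Nuclei counted on 4× images gave relative viability as treated counts over vehicle counts, reported as the median of duplicate plates.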

[2] = compound: COc1cccc2cc(-c3nc([C@H]4CC[C@H](C(=O)O)CC4)n4ncnc(N)c34)[nH]c12 [OSI-027] + N=C(N)NC(=N)NCCc1ccccc1 [Phenformin] (partner 250 µM)
Procedure, shortened: as §1

[3] = compound: Cc1nc(NC(=O)N2CCC[C@H]2C(N)=O)sc1-c1ccnc(C(C)(C)C(F)(F)F)c1 [Alpelisib] + CCNC(=O)c1noc(-c2cc(C(C)C)c(O)cc2O)c1-c1ccc(CN2CCOCC2)cc1 [Luminespib] (partner 0.01 µM)
Procedure, shortened: as §1

[4] = compound: Cc1nc(NC(=O)N2CCC[C@H]2C(N)=O)sc1-c1ccnc(C(C)(C)C(F)(F)F)c1 [Alpelisib] + Nc1nc2[nH]cc(CCc3ccc(C(=O)N[C@@H](CCC(=O)O)C(=O)O)cc3)c2c(=O)[nH]1 [Pemetrexed] (partner 0.2 µM)
Procedure, shortened: as §1

| Cell Line | relative viability ([1]; first compound 0.03162 µM) | relative viability ([1]; first compound 0.1 µM) | relative viability ([1]; first compound 0.3162 µM) | relative viability ([1]; first compound 1 µM) | relative viability ([2]; first compound 0.01 µM) | relative viability ([2]; first compound 0.03162 µM) | relative viability ([2]; first compound 0.1 µM) | relative viability ([2]; first compound 0.3162 µM) | relative viability ([2]; first compound 1 µM) | relative viability ([3]; first compound 0.04 µM) | relative viability ([3]; first compound 0.1265 µM) | relative viability ([3]; first compound 0.4 µM) | relative viability ([3]; first compound 1.265 µM) | relative viability ([3]; first compound 4 µM) | relative viability ([4]; first compound 0.04 µM) | relative viability ([4]; first compound 0.1265 µM) | relative viability ([4]; first compound 0.4 µM) | relative viability ([4]; first compound 1.265 µM) | relative viability ([4]; first compound 4 µM) |
| --- | --- | --- | --- | --- | --- | --- | --- | --- | --- | --- | --- | --- | --- | --- | --- | --- | --- | --- | --- |
| NCI-H460 | 0.137 | 0.131 | 0.138 | 0.218 | 0.656 | 0.648 | 0.567 | 0.542 | 0.224 | 0.0253 | 0.0415 | 0.0319 | 0.0281 | 0.0206 | 0.0625 | 0.0624 | 0.0552 | 0.0558 | 0.033 |
| NCI-H520 | 0.688 | 0.599 | 0.706 | 0.662 | 0.581 | 0.456 | 0.28 | 0.21 | 0.187 | 0.18 | 0.203 | 0.212 | 0.245 | 0.216 | 0.609 | 0.716 | 0.707 | 0.557 | 0.413 |
| NCI-H522 | 0.695 | 0.63 | 0.786 | 0.783 | 0.72 | 0.57 | 0.583 | 0.506 | 0.508 | 1.09 | 1.21 | 1.13 | 0.881 | 0.981 | 1.07 | 1.03 | 1.1 | 0.946 | 0.72 |
| NCI-H596 | 0.792 | 0.723 | 0.885 | 0.888 | 0.875 | 0.576 | 0.844 | 0.865 | 0.614 | 0.832 | 0.884 | 0.87 | 0.599 | 0.424 | 0.44 | 0.446 | 0.503 | 0.41 | 0.42 |
| NCI-H647 | 0.496 | 0.435 | 0.37 | 0.488 | 0.569 | 0.565 | 0.475 | 0.415 | 0.242 | 0.256 | 0.203 | 0.157 | 0.117 | 0.168 | 0.182 | 0.168 | 0.193 | 0.161 | 0.155 |
| NCI-H650 | 1.05 | 0.944 | 0.808 | 1.09 | 0.424 | 0.487 | 0.394 | 0.417 | 0.285 | 0.752 | 0.744 | 0.985 | 0.559 | 0.664 | 0.909 | 0.923 | 0.879 | 0.794 | 0.757 |
| NCI-H661 | 0.522 | 0.475 | 0.517 | 0.606 | 0.263 | 0.286 | 0.254 | 0.258 | 0.245 | 0.979 | 0.969 | 1.02 | 0.928 | 0.968 | 0.941 | 1.01 | 0.961 | 0.915 | 0.796 |
| NCI-H838 | 0.527 | 0.528 | 0.257 | 0.548 | 0.588 | 0.62 | 0.479 | 0.339 | 0.28 | 0.429 | 0.387 | 0.274 | 0.221 | 0.299 | 0.257 | 0.238 | 0.244 | 0.229 | 0.199 |
| NCI-H1355 | 0.454 | 0.35 | 0.464 | 0.523 | 0.409 | 0.45 | 0.46 | 0.407 | 0.304 | 0.679 | 0.575 | 0.83 | 0.608 | 0.514 | 1.03 | 1.03 | 1.01 | 0.934 | 0.926 |
| NCI-H1395 | 1.04 | 1.03 | 0.89 | 0.971 | 0.446 | 0.431 | 0.396 | 0.401 | 0.369 | 0.568 | 0.663 | 0.755 | 0.604 | 0.724 | 0.96 | 0.747 | 0.92 | 0.718 | 0.714 |
| NCI-H1437 | 0.474 | 0.538 | 0.626 | 0.629 | 0.31 | 0.292 | 0.296 | 0.286 | 0.211 | 1.16 | 1.09 | 1.2 | 1.07 | 1.26 | 0.3 | 0.31 | 0.274 | 0.252 | 0.213 |
| NCI-H1650 | 0.595 | 0.406 | 0.633 | 0.577 | 0.37 | 0.366 | 0.444 | 0.378 | 0.253 | 0.208 | 0.192 | 0.24 | 0.19 | 0.18 | 0.434 | 0.354 | 0.337 | 0.335 | 0.353 |
| NCI-H1651 | 0.805 | 0.741 | 0.773 | 0.827 | 0.364 | 0.285 | 0.299 | 0.256 | 0.25 | 0.78 | 1.05 | 1 | 0.78 | 0.666 | 0.543 | 0.525 | 0.594 | 0.541 | 0.538 |
| NCI-H1666 | 0.928 | 0.786 | 1.04 | 0.86 | 0.548 | 0.603 | 0.556 | 0.639 | 0.578 | 0.973 | 1.03 | 1.12 | 0.921 | 0.965 | 0.882 | 0.893 | 0.979 | 0.833 | 0.514 |
| NCI-H1734 | 0.655 | 0.641 | 0.66 | 0.643 | 0.398 | 0.398 | 0.384 | 0.346 | 0.238 | 0.19 |  | 0.18 | 0.183 | 0.167 | 0.407 | 0.406 | 0.394 | 0.406 | 0.399 |
| NCI-H1755 | 0.812 | 0.73 | 0.761 | 0.763 | 0.615 | 0.696 | 0.594 | 0.569 | 0.451 | 0.352 | 0.415 | 0.418 | 0.42 | 0.395 | 0.409 | 0.432 | 0.437 | 0.371 | 0.402 |
